The values below come from ChEMBL document CHEMBL1201862, “PubChem BioAssay data set” (2004).

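Results reflect a 48-hour exposure of cells in 96-well plates to compound at five concentrations. Abbreviation: GI50, concentration required for 50% inhibition of growth.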 The source made the active and inactive calls. Cut-off read from the data, not from the text of the source: active = GI50 up to about 1.1 µM and inactive = higher.

Test systems include SNB-19; CCRF-CEM; EKVX; HL-60; IGROV-1; HT-29; M14; CAKI-1; UACC-62; HCT-116; OVCAR-4; T47D; HOP-92; SK-OV-3; Malme-3M; 786-0; SR; SK-MEL-5; SNB-75; U-251.
What all share (assay): NCI tumour cell line growth inhibition, 48 h

For `FC(F)(F)c1nc2nc(Cl)c(Cl)nc2n1CCCN1CCOCC1`, the GI50 in the experiment on SNB-19 was 51.4 µM (inactive); in the experiment with CCRF-CEM, 24.7 µM (inactive); in the experiment with EKVX, 23.4 µM (inactive); in the experiment with HL-60 it was 19.1 µM (inactive); in the experiment with IGROV-1 it was 26.4 µM (inactive); with HT-29, 66.8 µM (inactive). In addition, the GI50 is 48.2 µM (inactive) with M14; 3.71 µM (inactive) in the experiment with CAKI-1; 50.6 µM (inactive) in the experiment with UACC-62; 41.9 µM (inactive) with HCT-116; 55.5 µM (inactive) in the experiment on OVCAR-4; 47 µM (inactive) in the experiment on T47D. The GI50 in the experiment on HOP-92 is 32 µM (inactive); in the experiment on SK-OV-3, > 100 µM (inactive); in the experiment with Malme-3M, 56 µM (inactive); in the experiment with 786-0, > 100 µM (inactive); in the experiment with SR it was 0.489 µM (active); in the experiment with SK-MEL-5, 61.5 µM (inactive). The GI50 in the experiment with SNB-75 was 79.3 µM (inactive); in the experiment on U-251, 65.9 µM (inactive).

`CC1CCN(CC(=O)N2c3ccccc3Sc3cc4ccccc4cc32)CC1`: the GI50 in the experiment with SNB-19 was > 100 µM (inactive); in the experiment with CCRF-CEM it was 84.7 µM (inactive); in the experiment with EKVX it was > 100 µM (inactive); with HL-60, 24.7 µM (inactive); with IGROV-1, > 100 µM (inactive); in the experiment with HT-29, 48 µM (inactive). Further, the GI50 was > 100 µM (inactive) in the experiment with M14; > 100 µM (inactive) with CAKI-1; > 100 µM (inactive) in the experiment on UACC-62; 49.7 µM (inactive) in the experiment with HCT-116; > 100 µM (inactive) in the experiment with OVCAR-4; > 100 µM (inactive) in the experiment on T47D. Moreover, the GI50 in the experiment on HOP-92 is > 100 µM (inactive); in the experiment with SK-OV-3, > 100 µM (inactive); in the experiment on Malme-3M it was > 100 µM (inactive); in the experiment on 786-0 it was > 100 µM (inactive); in the experiment on SR, 54.6 µM (inactive); in the experiment with SK-MEL-5 it was > 100 µM (inactive). In addition, the GI50 in the experiment on SNB-75 and in the experiment on U-251 was > 100 µM (inactive) in each case.

Turning to `CCCNC(=S)N/N=C1\C(=O)Nc2ccccc21`, the GI50 with SNB-19, in the experiment with CCRF-CEM, in the experiment on EKVX, in the experiment with HL-60, in the experiment with IGROV-1 and with HT-29 was > 100 µM (inactive) throughout. The GI50 in the experiment with M14, in the experiment with CAKI-1, in the experiment with UACC-62, in the experiment with HCT-116, with OVCAR-4 and in the experiment on T47D was > 100 µM (inactive) each time. Moreover, the GI50 with HOP-92, with SK-OV-3, in the experiment on Malme-3M, in the experiment on 786-0, with SR and in the experiment with SK-MEL-5 was > 100 µM (inactive) throughout. In addition, the GI50 in the experiment on SNB-75 and in the experiment on U-251 was > 100 µM (inactive) throughout.

For `O=C1c2ccccc2C(=O)c2c(NC(=O)C(Cl)CCl)cccc21` (stereo not drawn), the GI50 is 15.2 µM (inactive) with SNB-19; 0.163 µM (active) with CCRF-CEM; 19.4 µM (inactive) in the experiment with EKVX; 0.361 µM (active) with HL-60; 5.02 µM (inactive) in the experiment on IGROV-1; 3.05 µM (inactive) in the experiment with HT-29. Moreover, the GI50 with M14 is 6.28 µM (inactive); in the experiment with CAKI-1 it was 16.3 µM (inactive); in the experiment on UACC-62, 10.1 µM (inactive); in the experiment on HCT-116, 10.9 µM (inactive); in the experiment with OVCAR-4, 10.7 µM (inactive); in the experiment with T47D, 2.75 µM (inactive). For the same molecule, the GI50 with HOP-92 was 3.97 µM (inactive); in the experiment with SK-OV-3, 19 µM (inactive); with Malme-3M it was 18.7 µM (inactive); in the experiment on 786-0, 2.87 µM (inactive); with SR, < 0.01 µM (active); in the experiment on SK-MEL-5 it was 9.66 µM (inactive). Moreover, the GI50 is 10.5 µM (inactive) in the experiment with SNB-75 and 3.33 µM (inactive) in the experiment with U-251.

For `Cn1c2ccccc2c(=NNc2ccc(S(N)(=O)=O)cc2)c2ccccc21`, the GI50 was 27.6 µM (inactive) with SNB-19; 4.58 µM (inactive) in the experiment with CCRF-CEM; 12 µM (inactive) in the experiment with EKVX; 2.7 µM (inactive) in the experiment on HL-60; 17.7 µM (inactive) with IGROV-1; 17.6 µM (inactive) with HT-29. The GI50 in the experiment with M14 is 24 µM (inactive); in the experiment with CAKI-1, 15.7 µM (inactive); in the experiment on UACC-62, 14.7 µM (inactive); in the experiment with HCT-116, 16.7 µM (inactive); in the experiment on OVCAR-4 it was 14.3 µM (inactive); with T47D it was 5.45 µM (inactive). The GI50 was 8.85 µM (inactive) in the experiment on HOP-92; 20.2 µM (inactive) in the experiment with SK-OV-3; 17.9 µM (inactive) with Malme-3M; 21 µM (inactive) in the experiment with 786-0; 8.81 µM (inactive) with SR; 8.24 µM (inactive) with SK-MEL-5. Also, the GI50 in the experiment on SNB-75 is 15.1 µM (inactive); in the experiment with U-251, 19 µM (inactive).

With `Cc1ccc(/C=C2\N=C(N3CCOCC3)NC2=O)cc1`, the GI50 with SNB-19, with CCRF-CEM, in the experiment on EKVX, in the experiment on HL-60, with IGROV-1 and in the experiment with HT-29 was > 100 µM (inactive) throughout. The GI50 in the experiment on M14, with CAKI-1, with UACC-62, in the experiment with HCT-116, in the experiment with OVCAR-4 and with T47D was > 100 µM (inactive) each time. Also, the GI50 in the experiment with HOP-92, in the experiment on SK-OV-3, in the experiment on Malme-3M, in the experiment with 786-0, in the experiment with SR and in the experiment with SNB-75 was > 100 µM (inactive) throughout. The GI50 in the experiment with U-251 was > 100 µM (inactive).

Consider `COc1cc(NS(C)(=O)=O)ccc1NCc1c[nH]c2ccc3nc(C)ccc3c12`, for which the GI50 is 77.8 µM (inactive) in the experiment on SNB-19; 17.7 µM (inactive) in the experiment with CCRF-CEM; > 100 µM (inactive) with EKVX; 8.45 µM (inactive) in the experiment on HL-60; 73.6 µM (inactive) in the experiment with IGROV-1; 49.5 µM (inactive) in the experiment on HT-29. For the same molecule, the GI50 in the experiment on M14 was 56.1 µM (inactive); in the experiment on CAKI-1, 20.1 µM (inactive); with UACC-62, 40.6 µM (inactive); in the experiment on HCT-116, 42.9 µM (inactive); with OVCAR-4, 44.3 µM (inactive); in the experiment on T47D it was 24.2 µM (inactive). The GI50 was 40.6 µM (inactive) in the experiment on HOP-92; 96.4 µM (inactive) in the experiment on SK-OV-3; > 100 µM (inactive) in the experiment on Malme-3M; 30.4 µM (inactive) in the experiment with 786-0; 4.89 µM (inactive) in the experiment on SR; 42 µM (inactive) in the experiment with SK-MEL-5. In addition, the values for the GI50 in the experiment on SNB-75 and with U-251 were 22.8 µM (inactive) and 77.6 µM (inactive), respectively.

For the molecule `CC(=O)CSc1c(-c2ccccc2)c(=O)n(-c2ccccc2)c(=S)n1-c1ccccc1`, the GI50 with SNB-19, with CCRF-CEM, in the experiment on EKVX, in the experiment with HL-60, in the experiment with IGROV-1 and with HT-29 was > 100 µM (inactive) in each case. The GI50 with M14, in the experiment on CAKI-1, in the experiment with UACC-62, with HCT-116, in the experiment on OVCAR-4 and in the experiment with T47D was > 100 µM (inactive) throughout. For the same molecule, the GI50 with HOP-92, with SK-OV-3, with Malme-3M, in the experiment with 786-0, in the experiment on SR and in the experiment with SK-MEL-5 was > 100 µM (inactive) each time. For the same molecule, the GI50 with SNB-75 is 61.2 µM (inactive); with U-251 it was > 100 µM (inactive).

On to `Cc1cn([C@H]2C[C@](C)(CO)N(C)O2)c(=O)[nH]c1=O`, for which the GI50 in the experiment on SNB-19, with EKVX, in the experiment on HL-60, in the experiment on IGROV-1, with HT-29 and in the experiment on M14 was > 100 µM (inactive) in each case. Also, the GI50 in the experiment on CAKI-1, with UACC-62, in the experiment on HCT-116, in the experiment on OVCAR-4, with T47D and in the experiment on HOP-92 was > 100 µM (inactive) in each case. The GI50 in the experiment with SK-OV-3, with Malme-3M, in the experiment with 786-0, in the experiment with SR, with SK-MEL-5 and in the experiment on SNB-75 was > 100 µM (inactive) throughout. For the same molecule, in the experiment with U-251, the GI50 is > 100 µM (inactive).

`C=C1C(=O)O[C@@H]2CC(CO)=C([C@@H](C)CCCO)[C@@H](OC(=O)/C(C)=C\C)[C@H]12`: the GI50 in the experiment on SNB-19 is 20.1 µM (inactive); in the experiment on CCRF-CEM, 2.29 µM (inactive); in the experiment on EKVX, 13.7 µM (inactive); in the experiment with HL-60 it was 1.83 µM (inactive); in the experiment with IGROV-1 it was 14.5 µM (inactive); with HT-29 it was 12.9 µM (inactive). The GI50 in the experiment with M14 was 23.5 µM (inactive); in the experiment on CAKI-1 it was 22.1 µM (inactive); with UACC-62, 16 µM (inactive); in the experiment with HCT-116, 8.07 µM (inactive); in the experiment with OVCAR-4 it was 22.2 µM (inactive); with T47D, 10.4 µM (inactive). In addition, the GI50 was 19.6 µM (inactive) in the experiment on HOP-92; 25.9 µM (inactive) in the experiment on SK-OV-3; 13.3 µM (inactive) in the experiment on Malme-3M; 14.8 µM (inactive) in the experiment on 786-0; 1.88 µM (inactive) with SR; 13.9 µM (inactive) in the experiment on SK-MEL-5. Further, the GI50 with SNB-75 is 27.2 µM (inactive); in the experiment on U-251, 15 µM (inactive).
